Each structure is given as a SMILES string. Some results are limits rather than exact numbers.

The values below come from ChEMBL document CHEMBL1126892, “Comparative molecular field analysis of in vitro growth inhibition of L1210 and HCT-8 cells by some pyrazoloacridines” (J Med Chem, 1993).

The test system of test [1] is L1210. As to the kind of experiment: Growth inhibition against mouse leukemia L1210 cell line. It counts as functional, cell-based.
Test [2] concerns HCT-8. As to the kind of experiment: Growth inhibition against human colon carcinoma HCT-8 cell line. The test is classed as functional, cell-based.

Turning to `CCN(CC)CCN1Nc2c3ccccc3nc3c(NC(C)=O)ccc1c23`, the IC50 in test [1] was over 10000 nM.

Turning to `CCN(CC)CCN1Nc2c3cc(C)ccc3nc3c([N+](=O)[O-])ccc1c23`, the values for the IC50 in test [2] and in test [1] were 786 nM and 863 nM, respectively.

Turning to `CCN(CC)CCN1Nc2c3cc(OC)ccc3nc3c([N+](=O)[O-])ccc1c23`, the IC50 in test [2] was 123 nM; in test [1], 469 nM.

Turning to `CCCCOc1ccc2c(c1)-c1nn(CCN(CC)CC)c3ccc([N+](=O)[O-])c(c13)N2`, the values for the half-inhibitory concentration (IC50) in test [2] and in test [1] were 73 nM and 1180 nM, respectively.

Regarding `C=CCN1c2ccccc2-c2nn(CCNCCO)c3ccc([N+](=O)[O-])c1c23`, the IC50 stood at 1220 nM in test [2] and 2710 nM in test [1].

As for `CN1c2ccccc2-c2nn(CCNCCO)c3ccc([N+](=O)[O-])c1c23`, the IC50 in test [2] is 518 nM; in test [1], 510 nM.

On to `CCN(CC)CCN1Nc2c3ccccc3nc3c([N+](=O)[O-])ccc1c23`, for which the values for the IC50 in test [2] and in test [1] were 185 nM and 192 nM, respectively.

On to `CCN(CC)CCN1Nc2c3cc(OC)ccc3nc3c([N+](=O)[O-])cc([N+](=O)[O-])c1c23`, for which the figures for the half-inhibitory concentration (IC50) in test [2] and in test [1] were 66 nM and 399 nM, respectively.

On to `CC(=O)Oc1ccc2nc3c([N+](=O)[O-])ccc4c3c(c2c1)NN4CCCN(C)C`, for which the IC50 in test [2] amounted to 11 nM; in test [1] it was 1 nM.

As for `CCN(CC)CCN1Nc2c3cccc(OC)c3nc3c([N+](=O)[O-])ccc1c23`, the values for the IC50 in test [2] and in test [1] were 506 nM and 645 nM, respectively.

Turning to `CCN(CC)CCN1c2ccccc2-c2nn(CCN(CC)CC)c3ccc([N+](=O)[O-])c1c23`, the figures for the IC50 in test [2] and in test [1] were 788 nM and 877 nM, respectively.

With `CCCCOc1ccc2c(c1)-c1nn(CCNCCO)c3ccc([N+](=O)[O-])c(c13)N2`, the values for the IC50 in test [2] and in test [1] were 339 nM and 646 nM, respectively.

As to `COc1ccc2c(c1)-c1nn(CCNCCO)c3ccc([N+](=O)[O-])c(c13)N2`, the IC50 stood at 193 nM in test [2] and 450 nM in test [1].

Turning to `CCOc1ccc2c(c1)-c1nn(CCN(C)C)c3ccc([N+](=O)[O-])c(c13)N2`, the IC50 in test [2] was 25 nM; in test [1], 275 nM.

Turning to `CCN(CC)CCN1Nc2c3cc(N(C)C)ccc3nc3c([N+](=O)[O-])ccc1c23`, the results for the IC50 in test [2] and in test [1] were 317 nM and 896 nM, respectively.

For the compound `O=[N+]([O-])c1ccc2c3c(c4ccccc4nc13)NN2CCNCCO`, the IC50 in test [2] worked out at 152 nM; in test [1] it was 218 nM.

With `CCN(CC)CCn1nc2c3c(c([N+](=O)[O-])ccc31)N(C)c1ccccc1-2`, the IC50 in test [2] stood at 901 nM; in test [1], 618 nM.

On to `CCNCCN1Nc2c3cc(OC)ccc3nc3c([N+](=O)[O-])ccc1c23`, for which the half-maximal inhibitory concentration (IC50) in test [2] was found to be 124 nM; in test [1] it was 208 nM.

In test [2], `CCOc1ccc2c(c1)-c1nn(CCN(CC)CC)c3ccc([N+](=O)[O-])c(c13)N2` registered an IC50 of 114 nM.

Regarding `CN(C)CCN1Nc2c3cc(N(C)C)ccc3nc3c([N+](=O)[O-])ccc1c23`, the IC50 came out at 164 nM in test [2] and 601 nM in test [1].

Regarding `COc1ccc2c(c1)-c1nn(CCCN(C)C)c3ccc([N+](=O)[O-])c(c13)N2` [PYRAZOLOACRIDINE], the results for the concentration for half-maximal inhibition (IC50) in test [2] and in test [1] were 136 nM and 424 nM, respectively.

Take `CN(C)CCCN1Nc2c3cc(OC(=O)C(C)(C)C)ccc3nc3c([N+](=O)[O-])ccc1c23`: the IC50 stood at 27 nM in test [2] and 8 nM in test [1].

Turning to `CCN(CC)CCn1nc2c3c(c(N)ccc31)N(C)c1ccccc1-2`, the IC50 was 1560 nM in test [2] and over 10000 nM in test [1].

Regarding `Cc1ccc2c(c1)-c1nn(CCNCCO)c3ccc([N+](=O)[O-])c(c13)N2`, the values for the IC50 in test [2] and in test [1] were 255 nM and 592 nM, respectively.

On to `CCN(CC)CCN1Nc2c3cc(OC(=O)C(C)(C)C)ccc3nc3c([N+](=O)[O-])ccc1c23`, for which the IC50 in test [2] and in test [1] was 10 nM in each case.

Take `COc1ccc2c(c1)-c1nn(CCN(C)C)c3c([N+](=O)[O-])cc([N+](=O)[O-])c(c13)N2`: the IC50 in test [2] came out at 15 nM; in test [1], 49 nM.

Take `CCN(CC)CCN1Nc2c3cc(OC(C)=O)ccc3nc3c([N+](=O)[O-])ccc1c23`: the IC50 is 5 nM in test [2] and 4 nM in test [1].

On to `CCN(CC)CCN1Nc2c3cc(S(C)(=O)=O)ccc3nc3c([N+](=O)[O-])ccc1c23`, for which the half-inhibitory concentration (IC50) worked out at 774 nM in test [2] and 1830 nM in test [1].

Consider `COc1ccc2c(c1)-c1nn(CCN(C)C)c3ccc([N+](=O)[O-])c(c13)N2`, for which the values for the IC50 in test [2] and in test [1] were 105 nM and 396 nM, respectively.

For the compound `CCN(CC)CCCN1Nc2c3cc(OC)ccc3nc3c([N+](=O)[O-])ccc1c23`, the IC50 in test [2] was determined as 764 nM; in test [1], 1330 nM.

In test [1], `C=Cn1nc2c3c(c([N+](=O)[O-])ccc31)N(C)c1ccccc1-2` registered an IC50 of over 10000 nM.

Consider `CN1Nc2c3ccccc3nc3c([N+](=O)[O-])ccc1c23`, for which the IC50 in test [1] was over 10000 nM.

Compound `CN(C)CCCN1Nc2c3cc(O)ccc3nc3c([N+](=O)[O-])ccc1c23` came in with an IC50 in test [1] of 2 nM.

With `CCN(CC)CCn1nc2c3c(c([N+](=O)[O-])ccc31)N(C)c1ccc(OC)cc1-2`, the 50% inhibitory concentration (IC50) came out at 308 nM in test [2] and 605 nM in test [1].

For the compound `CCOc1ccc2c(c1)-c1nn(CCNCCO)c3ccc([N+](=O)[O-])c(c13)N2`, the half-inhibitory concentration (IC50) in test [2] amounted to 82 nM; in test [1], 325 nM.

Turning to `CCN(CC)CCN1Nc2c3cc(OCc4ccccc4)ccc3nc3c([N+](=O)[O-])ccc1c23`, the half-maximal inhibitory concentration (IC50) in test [2] was 1140 nM; in test [1], 2680 nM.

`CCOc1ccc2c(c1)-c1nn(CCCN(C)C)c3ccc([N+](=O)[O-])c(c13)N2` returned a half-inhibitory concentration (IC50) in test [2] of 55 nM.

As for `COc1ccc2c(c1)-c1nn(CCO)c3ccc([N+](=O)[O-])c(c13)N2`, the IC50 in test [2] and in test [1] was over 10000 nM throughout.

Take `CSc1ccc2c(c1)-c1nn(CCCN(C)C)c3ccc([N+](=O)[O-])c(c13)N2`: the half-maximal inhibitory concentration (IC50) is 352 nM in test [2] and 513 nM in test [1].

As for `CCCOc1ccc2c(c1)-c1nn(CCN(CC)CC)c3ccc([N+](=O)[O-])c(c13)N2`, the results for the IC50 in test [2] and in test [1] were 31 nM and 469 nM, respectively.

With `CCN(CC)CCN1Nc2c3cc(O[Si](C)(C)C(C)(C)C)ccc3nc3c([N+](=O)[O-])ccc1c23`, the IC50 in test [2] and in test [1] was 6 nM throughout.

For the compound `CCN(CC)CCn1nc2c3c(c(/N=C/N(C)C)ccc31)N(C)c1ccccc1-2`, the 50% inhibitory concentration (IC50) in test [2] came to 297 nM; in test [1], 785 nM.

Turning to `O=[N+]([O-])c1ccc2c3c(c4ccccc4nc13)NN2CCO`, in test [1], the half-maximal inhibitory concentration (IC50) is over 10000 nM.
